# Literature values, collected in patent US20120294924A1, “Peptide-Lipid Conjugates And Uses Thereof” (priority 2011, published 2012).
# No end group written: not given here.
# Conditions: qualitative statement, Li et al., Biochimica et Biophysica Acta 1768:411-418, 2007
sequence,measurement,value
"HAEHKVKIGVEQKYGQFPQGTEVTYTCSGNYFLM [Sushi-3, 34mer peptide from a Sushi domain of horseshoe crab Factor C]",binding to LPS,bind to LPS
